Assay results taken from patent US20240228490A1, “HETEROCYCLIC DERIVATIVE INHIBITOR AND PREPARATION METHOD THEREFOR AND APPLICATION THEREOF” (Shanghai Hansoh Biomedical Co., Ltd., priority 2021, published 2024).

The molecules below were run against PARP1 enzyme (Homo sapiens (Human), UniProt P09874) (assay: Inhibitory activity on PARP1 enzyme (chemiluminescence)).
Type: biochemical
Procedure: The inhibitory activity of the compounds on PARP1 enzyme was determined by the chemiluminescence method in the experiment. The experiment was carried out in a 384-well plate. Coating histones in a 384-well plate: 5×histone solution was diluted 5 folds with PBS, added to a 384-well ELISA plate (25 μL per well), and incubated at 4° C. overnight. […] A mixture of PARP reaction biotin-labeled substrate, activated DNA, 10×PARP buffer and water was added (12.5 μL per well). Compound solutions with different concentrations were formulated using the experimental buffer (10% DMSO aqueous solution containing 1.25 mM DTT). The final detection concentration started from 100 nM, with 3-fold dilution and 8 concentrations. The compound solutions were added to the reaction wells of the 384-well plate (2.5 μL per well). 2.5 μL of 10% DMSO aqueous solution containing 1.25 mM DTT was added to the positive control well and blank well (2.5 μL per well). […] The plate was centrifuged at 1000 rpm for 1 minute, and reacted at room temperature for 60 minutes. […] Streptavidin-HRP solution diluted 50 folds with Blocking buffer 3 was added (25 μL per well), and the plate was incubated at room temperature for 30 minutes. […] The luminescence reaction solution obtained by mixing ECL substrate A and ELISA ECL substrate B (1:1) was added (50 μL per well) for reaction. The chemiluminescence values were measured immediately with a BioTek Synergy H1 or Envision instrument.
The chemiluminescence values were measured with a BioTek Synergy H1 or Envision instrument. The inhibition rate was calculated, and the concentration and inhibition rate were fitted to a nonlinear regression curve using Graphpad Prism software to obtain the IC50 value.

PARP1 enzyme, sequence (P09874 whole entry): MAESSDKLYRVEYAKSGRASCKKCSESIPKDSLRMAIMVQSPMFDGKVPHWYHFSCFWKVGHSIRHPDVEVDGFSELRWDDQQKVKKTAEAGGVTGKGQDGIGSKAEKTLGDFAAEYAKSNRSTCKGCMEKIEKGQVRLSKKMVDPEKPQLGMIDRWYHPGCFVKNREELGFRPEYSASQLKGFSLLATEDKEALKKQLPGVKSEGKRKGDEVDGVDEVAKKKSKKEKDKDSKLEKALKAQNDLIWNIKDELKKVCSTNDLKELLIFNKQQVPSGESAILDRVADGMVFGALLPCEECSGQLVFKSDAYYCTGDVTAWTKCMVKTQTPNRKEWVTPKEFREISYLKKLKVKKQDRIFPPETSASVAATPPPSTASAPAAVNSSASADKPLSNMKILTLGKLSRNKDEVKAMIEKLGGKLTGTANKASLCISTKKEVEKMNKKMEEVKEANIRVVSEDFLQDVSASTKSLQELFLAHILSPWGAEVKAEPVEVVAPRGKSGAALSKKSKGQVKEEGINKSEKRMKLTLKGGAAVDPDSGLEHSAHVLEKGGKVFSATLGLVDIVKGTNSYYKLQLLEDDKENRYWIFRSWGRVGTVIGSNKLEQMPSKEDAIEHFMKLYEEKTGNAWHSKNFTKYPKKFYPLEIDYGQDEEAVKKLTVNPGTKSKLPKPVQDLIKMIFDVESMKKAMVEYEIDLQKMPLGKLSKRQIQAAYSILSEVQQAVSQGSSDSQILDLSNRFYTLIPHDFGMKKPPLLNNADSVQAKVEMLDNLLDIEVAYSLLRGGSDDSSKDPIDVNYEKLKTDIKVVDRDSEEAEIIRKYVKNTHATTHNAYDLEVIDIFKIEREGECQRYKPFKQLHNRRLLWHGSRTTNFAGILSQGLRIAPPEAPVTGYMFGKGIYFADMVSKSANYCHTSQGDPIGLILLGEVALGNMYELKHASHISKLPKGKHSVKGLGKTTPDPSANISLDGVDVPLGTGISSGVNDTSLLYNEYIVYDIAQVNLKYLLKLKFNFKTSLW

Row | Compound | IC50
1 | CCc1cc2ncc(CN3CCN(c4cnc5[nH]ccc5c4)CC3)cc2[nH]c1=O [Example 23, 7-((4-(1H-Pyrrolo[2,3-b]pyridin-5-yl)piperazin-1-yl)methyl)-3-ethyl-1,5-naphthyridin-2(1H)-one] | 3.3 nM
2 | CCc1cc2ncc(CN3CC=C(c4ccc(C(=O)N[C@H]5CCOC5)nc4)CC3)cc2[nH]c1=O [Example 31, (S)-1′-((7-Ethyl-6-oxo-5,6-dihydro-1,5-naphthyridin-3-yl)methyl)-N-(tetrahydrofuran-3-yl)-1′,2′,3′,6′-tetrahydro-[3,4′-bipyridine]-6-carboxamide] | 1 nM
3 | CCC1Oc2ncc(CN3CC=C(c4ccc(C(=O)NC)nc4F)CC3)cc2NC1=O (centres unmarked) [Example 90, 1′-((3-Ethyl-2-oxo-2,3-dihydro-1H-pyrido[2,3-b][1,4]oxazin-7-yl)methyl)-2-fluoro-N-methyl-1′,2′,3′,6′-tetrahydro-[3,4′-bipyridine]-6-carboxamide] | 2.7 nM
4 | CCC1Oc2ccc(CN3CC=C(c4ccc(C(=O)NC)nc4Cl)CC3)cc2NC1=O (centres unmarked) [Example 87, 2-Chloro-1′-((2-ethyl-3-oxo-3,4-dihydro-2H-benzo[b][1,4]oxazin-6-yl)methyl)-N-methyl-1′,2′,3′,6′-tetrahydro-[3,4′-bipyridine]-6-carboxamide] | 4.9 nM
5 | CCc1cc2ncc(CN3CCN(c4ccc5c(c4)CNC5=O)CC3)cc2[nH]c1=O [Example 17, 3-Ethyl-7-((4-(1-oxoisoindolin-5-yl)piperazin-1-yl)methyl)-1,5-naphthyridin-2(1H)-one] | 4.5 nM
6 | CCc1cc2ncc(CN3CC=C(c4ccc(C(=O)NC)c(F)c4C)CC3)cc2[nH]c1=O [Example 66, 4-(1-((7-Ethyl-6-oxo-5,6-dihydro-1,5-naphthyridin-3-yl)methyl)-1,2,3,6-tetrahydropyridin-4-yl)-2-fluoro-N,3-dimethylbenzamide] | 1.7 nM
7 | CCc1cc2ncc(CN3CC=C(c4ccc(C(=O)NC)nc4OC)CC3)cc2[nH]c1=O [Example 34, 1′-((7-Ethyl-6-oxo-5,6-dihydro-1,5-naphthyridin-3-yl)methyl)-2-methoxy-N-methyl-1′,2′,3′,6′-tetrahydro-[3,4′-bipyridine]-6-carboxamide] | 1.6 nM
8 | CCc1cc2ncc(CN3CCN(c4ccc5c(c4)CN(C)C5=O)CC3)cc2[nH]c1=O [Example 6, 3-Ethyl-7-((4-(2-methyl-1-oxoisoindolin-5-yl)piperazin-1-yl)methyl)-1,5-naphthyridin-2(1H)-one] | 2.9 nM
9 | CCc1cc2ncc(CN3CC=C(c4ccc(C(=O)N[C@@H]5CCOC5)nc4)CC3)cc2[nH]c1=O [Example 32, (R)-1′-((7-Ethyl-6-oxo-5,6-dihydro-1,5-naphthyridin-3-yl)methyl)-N-(tetrahydrofuran-3-yl)-1′,2′,3′,6′-tetrahydro-[3,4′-bipyridine]-6-carboxamide] | 1 nM
10 | CCn1c(=O)[nH]c2cc(CN3CC=C(c4ccc(C(=O)NC)nc4F)CC3)ccc2c1=O [Example 91, 1′-((3-Ethyl-2,4-dioxo-1,2,3,4-tetrahydroquinazolin-7-yl)methyl)-2-fluoro-N-methyl-1′,2′,3′,6′-tetrahydro-[3,4′-bipyridine]-6-carboxamide] | 3 nM
11 | CCC1Oc2ncc(CN3CC=C(c4ccc(C(=O)NC)nc4Cl)CC3)cc2NC1=O (centres unmarked) [Example 85, 2-Chloro-1′-((3-ethyl-2-oxo-2,3-dihydro-1H-pyrido[2,3-b][1,4]oxazin-7-yl)methyl)-N-methyl-1′,2′,3′,6′-tetrahydro-[3,4′-bipyridine]-6-carboxamide] | 3.5 nM
12 | CCC1Oc2ncc(CN3CC=C(c4ccc(C(=O)NC)nc4C)CC3)cc2NC1=O (centres unmarked) [Example 86, 1′-((3-Ethyl-2-oxo-2,3-dihydro-1H-pyrido[2,3-b][1,4]oxazin-7-yl)methyl)-N,2-dimethyl-1′,2′,3′,6′-tetrahydro-[3,4′-bipyridine]-6-carboxamide] | 5.1 nM
13 | CCc1cc2ncc(CN3CC=C(c4ccc(C(=O)NC)c(F)c4)CC3)cc2[nH]c1=O [Example 33, 4-(1-((7-Ethyl-6-oxo-5,6-dihydro-1,5-naphthyridin-3-yl)methyl)-1,2,3,6-tetrahydropyridin-4-yl)-2-fluoro-N-methylbenzamide] | 0.91 nM
14 | CCc1cc2ncc(CN3CC=C(c4ccc(C(=O)NC)c(F)c4Cl)CC3)cc2[nH]c1=O [Example 65, 3-Chloro-4-(1-((7-ethyl-6-oxo-5,6-dihydro-1,5-naphthyridin-3-yl)methyl)-1,2,3,6-tetrahydropyridin-4-yl)-2-fluoro-N-methylbenzamide] | 2.2 nM
15 | CCc1cc2ncc(CN3CCN(c4ccc5nc(C)[nH]c5c4)CC3)cc2[nH]c1=O [Example 24, 3-Ethyl-7-((4-(2-methyl-1H-benzo[d]imidazol-6-yl)piperazin-1-yl)methyl)-1,5-naphthyridin-2(1H)-one] | 1.7 nM
16 | CCc1cc2ncc(CN3CC=C(c4ccc(C(=O)NC)c(F)c4F)CC3)cc2[nH]c1=O [Example 67, 4-(1-((7-Ethyl-6-oxo-5,6-dihydro-1,5-naphthyridin-3-yl)methyl)-1,2,3,6-tetrahydropyridin-4-yl)-2,3-difluoro-N-methylbenzamide] | 2.1 nM
17 | CCc1cc2ncc(CN3CCN(c4ccc5c(c4)C(=O)N(C)C5=O)CC3)cc2[nH]c1=O [Example 79, 5-(4-((7-Ethyl-6-oxo-5,6-dihydro-1,5-naphthyridin-3-yl)methyl)piperazin-1-yl)-2-methylisoindoline-1,3-dione] | 3.3 nM
18 | CCc1cc2ncc(CN3CC=C(c4ccc(C(=O)NC#N)nc4)CC3)cc2[nH]c1=O [Example 57, N-Cyano-1′-((7-ethyl-6-oxo-5,6-dihydro-1,5-naphthyridin-3-yl)methyl)-1′,2′,3′,6′-tetrahydro-[3,4′-bipyridine]-6-carboxamide] | 2.8 nM
19 | CCc1cc2ncc(CN3CCN(c4ccc5c(C(=O)NC)ncn5c4)CC3)cc2[nH]c1=O [Example 80, 6-(4-((7-Ethyl-6-oxo-5,6-dihydro-1,5-naphthyridin-3-yl)methyl)piperazin-1-yl)-N-methylimidazo[1,5-a]pyridine-1-carboxamide] | 5 nM
20 | CCC1Oc2ccc(CN3CC=C(c4ccc(C(=O)NC)nc4C)CC3)cc2NC1=O (centres unmarked) [Example 88, 1′-((2-Ethyl-3-oxo-3,4-dihydro-2H-benzo[b][1,4]oxazin-6-yl)methyl)-N,2-dimethyl-1′,2′,3′,6′-tetrahydro-[3,4′-bipyridine]-6-carboxamide] | 5 nM
